Data set [1] addresses T1, RET kinase (Homo sapiens, UniProt P07949).
T1 construct: purchased Carna 08-159
Kind of data set: HTRF kinase activity inhibition, RET wild-type. The format is biochemical. Particulars: ATP at Km. Summed up:
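HTRF (KinEASE-TK) kinase assay with recombinant RET wild-type, RET V804M, RET V804L and KIF5B-RET enzymes plus ATP.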

Data set [2] concerns the target T2, KDR kinase (Homo sapiens, UniProt P35968).
T2 construct: purchased Carna 08-191
Kind of data set: HTRF kinase activity inhibition, KDR. The format is biochemical. Particulars: for IC50: HTRF, ATP at Km; for Ratio (KDR/RET): KDR IC50 / RET IC50. Summed up:
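Inhibition of KDR kinase activity measured by homogeneous time-resolved fluorescence with a tyrosine-kinase KinEASE substrate kit and ATP.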

The subject of data set [3] is TT cells (MTC, RET C634W). Kind of data set: Inhibition of proliferation of TT cells (CellTiter-Glo, 72 h). The format is cell-based. Particulars: Homo sapiens. Summed up:
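TT cells seeded overnight, then exposed to compound dilutions for 72 h at 37 °C, 5% CO2, with a solvent control. Viability read by CellTiter-Glo luminescence; IC50 from nonlinear regression of inhibition rate versus concentration.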
Background: ATP-based viability assays read luminescence as a measure of living cells.

In data set [4] the target is T3, Ba/F3 KIF5B-RET cells (Homo sapiens, UniProt P07949).
T3 construct: fused on or other part: P33176 (Kinesin-1 heavy chain)
T3 sequence (P07949 whole entry, change not shown, the tested form may be a part): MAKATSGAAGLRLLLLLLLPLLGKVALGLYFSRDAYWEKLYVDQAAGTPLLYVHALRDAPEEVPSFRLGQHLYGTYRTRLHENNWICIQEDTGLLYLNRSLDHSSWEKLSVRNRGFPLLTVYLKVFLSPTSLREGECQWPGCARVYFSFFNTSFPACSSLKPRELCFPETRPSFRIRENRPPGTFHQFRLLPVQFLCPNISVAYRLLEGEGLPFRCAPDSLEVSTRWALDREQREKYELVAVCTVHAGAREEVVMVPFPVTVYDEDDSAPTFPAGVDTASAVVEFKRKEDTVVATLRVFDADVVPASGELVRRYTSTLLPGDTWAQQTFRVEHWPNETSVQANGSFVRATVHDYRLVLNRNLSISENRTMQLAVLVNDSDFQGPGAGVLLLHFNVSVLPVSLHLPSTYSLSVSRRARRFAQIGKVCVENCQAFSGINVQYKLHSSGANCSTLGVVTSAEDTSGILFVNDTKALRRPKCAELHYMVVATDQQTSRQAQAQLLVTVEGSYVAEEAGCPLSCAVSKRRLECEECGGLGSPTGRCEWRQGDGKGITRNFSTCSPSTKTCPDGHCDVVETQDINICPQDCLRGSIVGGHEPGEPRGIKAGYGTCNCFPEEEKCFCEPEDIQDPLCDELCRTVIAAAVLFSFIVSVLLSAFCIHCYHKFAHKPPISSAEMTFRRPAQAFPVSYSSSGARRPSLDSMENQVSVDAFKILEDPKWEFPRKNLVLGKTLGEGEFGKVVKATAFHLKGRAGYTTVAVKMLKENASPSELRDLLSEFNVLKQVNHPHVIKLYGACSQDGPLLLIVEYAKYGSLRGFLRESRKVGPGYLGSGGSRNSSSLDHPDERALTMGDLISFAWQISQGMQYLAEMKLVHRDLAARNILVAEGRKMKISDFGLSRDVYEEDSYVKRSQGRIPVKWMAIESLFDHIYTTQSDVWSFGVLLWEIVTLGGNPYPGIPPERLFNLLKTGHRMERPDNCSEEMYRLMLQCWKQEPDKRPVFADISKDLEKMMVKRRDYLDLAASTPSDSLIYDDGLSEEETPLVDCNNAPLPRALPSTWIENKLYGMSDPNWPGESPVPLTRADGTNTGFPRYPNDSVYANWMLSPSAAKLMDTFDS
As to the kind of experiment: Inhibition of proliferation of Ba/F3 KIF5B-RET cells (CellTiter-Glo). It is filed as cell-based. Particulars: 72 to 144 hours. A digest of the protocol:
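Cells plated overnight, then exposed to compound dilutions in DMSO/medium at 37° C, 5% CO2 for 72 to 144 hours. Viability read by CellTiter-Glo luminescence; IC50 from inhibition rates fitted by nonlinear regression.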

Data set [5] is described as follows: Balb/C mouse pharmacokinetics, oral 5 mg/kg. It is filed as in vivo, Balb/C mice. The conditions noted are these: male, p.o. 5 mg/kg, plasma; for MRT: read-out: Average residence time MRT; for Cmax: read-out: Blood concentration Cmax; for AUC(0-t): read-out: Curve area AUC0-t; for AUC(0-inf): read-out: Curve area AUC0-∞; for half-life: read-out: Half-life t1/2 (converted); for Tmax: read-out: Peak time tmax. A digest of the protocol:
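Male Balb/C mice (6 per compound) were fasted overnight and dosed in 0.5% CMC-Na (1% Tween80) solution or suspension. EDTA-K2 plasma was sampled at 0, 0.5, 1, 2, 4, 6, 8 and 24 h. Compound levels were measured by LC/MS/MS after acetonitrile precipitation, and PK parameters were derived from the plasma profiles.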

In data set [6] the test system is subcutaneous transplanted tumor of Ba/F3 KIF5B-RET cells. As to the kind of experiment: Tumor suppression on Ba/F3 KIF5B-RET transplanted tumor model. It is filed as in vivo, BALB/c nude mice. The protocol:
Ba/F3 KIF5B-RET cells were removed from the cell bank, resuscitated and added to RPMI1640 medium (RPMI1640+10% FBS+1% Glu+1% P/S), then cultured in a CO2 incubator (incubator temperature was 37° C., CO2 concentration was 5%), and when the cell number expanded to the required number for in vivo inoculation, Ba/F3 KIF5B-RET cells were collected. The cells were counted with an automatic cell counter, resuspended with PBS according to the count results, made into a cell suspension (density was 2×10^7/mL), and placed in an ice box for use.
Female BALB/c nude mice aged 6-8 weeks were used, weighing about 18-22 g. Mice were reared in SPF animal room, and were reared in a single cage with 5 mice in each cage. All cages, bedding and water were sterilized at high temperature before use, and all animals were allowed to eat and drink freely. Nude mice were labeled with disposable universal ear tags for mice and rats before the start of the experiment, and the skin of the inoculation site was disinfected with 75% medical alcohol before inoculation. 0.1 mL (containing 2*10^6 cells) of Ba/F3 KIF5B-RET cells were inoculated subcutaneously on the right back of each mouse. Group administration was initiated when the tumor volume reached 60-200 mm^3, with 5 mice in each group. Each test compound was administered orally twice a day for 14 days. The tumor volume and the weight of mice were measured twice a week, and the tumor TGI (%) was calculated.
The tumor volume (mm^3) was calculated as V=0.5*D*d*d, where D and d were the long and short diameters of the tumor, respectively.
When there was no tumor regression, TGI (%)=[(1-(mean tumor volume at the end of the administration in a treatment group−mean tumor volume at the start of administration in the treatment group))/(mean tumor volume at the end of treatment in the solvent control group−mean tumor volume at the start of treatment in the solvent control group)]×100%.
When there was tumor regression, TGI (%)=[1-(mean tumor volume at the end of administration in a treatment group−mean tumor volume at the beginning of administration in the treatment group)/mean tumor volume at the beginning of administration in the treatment group]×100%.

This is an account of results in patent US20230406865A1, “CRYSTAL FORM OF FREE BASE OF INHIBITOR CONTAINING BICYCLIC RING DERIVATIVE AND PREPARATION METHOD AND APPLICATION OF CRYSTAL FORM” (SHANGHAI HANSOH BIOMEDICAL CO., LTD., priority 2020, published 2023).

T1 sequence (P07949 29-1114): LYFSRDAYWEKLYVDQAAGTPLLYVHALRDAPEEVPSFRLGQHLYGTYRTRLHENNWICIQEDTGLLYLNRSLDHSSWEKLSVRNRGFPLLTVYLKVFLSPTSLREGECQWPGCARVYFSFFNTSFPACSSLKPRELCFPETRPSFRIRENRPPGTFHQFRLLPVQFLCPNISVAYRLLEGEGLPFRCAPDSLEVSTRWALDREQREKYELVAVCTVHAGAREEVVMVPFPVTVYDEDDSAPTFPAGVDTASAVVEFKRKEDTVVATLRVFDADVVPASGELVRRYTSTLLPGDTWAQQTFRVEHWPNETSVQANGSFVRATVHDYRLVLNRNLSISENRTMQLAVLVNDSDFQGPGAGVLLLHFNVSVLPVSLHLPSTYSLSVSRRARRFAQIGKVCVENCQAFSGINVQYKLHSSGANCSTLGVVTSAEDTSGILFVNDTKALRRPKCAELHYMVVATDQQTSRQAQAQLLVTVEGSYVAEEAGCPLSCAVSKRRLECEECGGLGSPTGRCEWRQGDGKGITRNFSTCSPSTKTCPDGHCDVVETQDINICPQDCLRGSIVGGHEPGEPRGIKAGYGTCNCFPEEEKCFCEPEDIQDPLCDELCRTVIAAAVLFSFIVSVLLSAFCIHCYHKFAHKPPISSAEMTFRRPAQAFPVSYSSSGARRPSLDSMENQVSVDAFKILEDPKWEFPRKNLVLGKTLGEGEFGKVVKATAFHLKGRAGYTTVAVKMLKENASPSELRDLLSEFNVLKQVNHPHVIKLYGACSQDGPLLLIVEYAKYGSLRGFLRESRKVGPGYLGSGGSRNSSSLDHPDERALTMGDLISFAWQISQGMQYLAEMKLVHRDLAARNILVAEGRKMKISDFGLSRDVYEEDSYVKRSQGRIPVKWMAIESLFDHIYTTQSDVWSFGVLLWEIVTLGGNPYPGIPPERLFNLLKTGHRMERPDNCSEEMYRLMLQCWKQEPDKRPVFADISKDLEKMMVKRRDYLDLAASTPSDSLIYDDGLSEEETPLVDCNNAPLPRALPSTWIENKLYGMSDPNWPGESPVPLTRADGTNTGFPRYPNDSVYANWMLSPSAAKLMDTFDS
T2 sequence (P35968 20-1356): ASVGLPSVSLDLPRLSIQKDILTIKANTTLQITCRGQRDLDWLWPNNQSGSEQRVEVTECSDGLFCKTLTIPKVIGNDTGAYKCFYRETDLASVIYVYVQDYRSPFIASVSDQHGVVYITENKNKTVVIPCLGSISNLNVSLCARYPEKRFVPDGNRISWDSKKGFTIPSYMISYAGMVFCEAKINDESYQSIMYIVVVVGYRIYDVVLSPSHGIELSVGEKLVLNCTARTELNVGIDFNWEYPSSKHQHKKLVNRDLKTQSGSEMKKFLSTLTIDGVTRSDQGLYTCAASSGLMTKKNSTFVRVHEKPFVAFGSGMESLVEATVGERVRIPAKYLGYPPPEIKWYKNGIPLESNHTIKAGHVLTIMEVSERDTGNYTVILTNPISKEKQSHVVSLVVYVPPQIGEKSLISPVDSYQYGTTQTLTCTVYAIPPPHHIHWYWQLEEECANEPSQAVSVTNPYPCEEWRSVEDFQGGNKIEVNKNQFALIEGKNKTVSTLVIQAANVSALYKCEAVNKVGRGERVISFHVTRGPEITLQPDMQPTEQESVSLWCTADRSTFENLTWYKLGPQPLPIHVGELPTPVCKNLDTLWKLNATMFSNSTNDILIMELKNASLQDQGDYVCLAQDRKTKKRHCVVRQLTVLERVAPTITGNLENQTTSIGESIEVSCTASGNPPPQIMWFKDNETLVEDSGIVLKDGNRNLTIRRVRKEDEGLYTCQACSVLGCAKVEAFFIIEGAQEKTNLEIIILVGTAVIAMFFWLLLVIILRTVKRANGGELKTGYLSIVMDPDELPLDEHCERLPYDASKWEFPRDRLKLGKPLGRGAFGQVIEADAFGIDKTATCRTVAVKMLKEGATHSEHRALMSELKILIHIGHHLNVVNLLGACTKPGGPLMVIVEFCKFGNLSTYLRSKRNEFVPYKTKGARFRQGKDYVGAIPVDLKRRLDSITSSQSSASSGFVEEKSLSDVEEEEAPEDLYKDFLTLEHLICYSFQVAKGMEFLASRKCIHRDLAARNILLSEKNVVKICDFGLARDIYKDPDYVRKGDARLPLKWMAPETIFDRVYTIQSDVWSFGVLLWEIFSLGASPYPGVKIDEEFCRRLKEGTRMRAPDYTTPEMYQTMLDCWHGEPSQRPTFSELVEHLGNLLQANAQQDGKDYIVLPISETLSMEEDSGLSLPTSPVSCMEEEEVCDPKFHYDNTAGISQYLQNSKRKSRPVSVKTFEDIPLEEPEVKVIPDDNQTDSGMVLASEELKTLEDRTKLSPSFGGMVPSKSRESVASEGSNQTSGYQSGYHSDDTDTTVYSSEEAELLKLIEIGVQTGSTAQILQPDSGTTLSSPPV

By IC50 is commonly meant the concentration that inhibits the measured activity by half. In general, MRT refers to a mean duration of stay, worked out from the concentration-time curve. A word on the Tmax: it is the time at which the peak concentration occurs. As to `CC1(NC(=O)c2ncccc2Cl)CCN(c2ccc(-c3cc(OCC4(C#N)CC4)cn4ncc(C#N)c34)cn2)CC1` [Embodiment 92, 3-Chloro-N-(1-(5-(3-cyano-6-((1-cyanocyclopropyl)methoxy)pyrazolo[1,5-a]pyridin-4-yl)pyridin-2-yl)-4-methylpiperidin-4-yl)picolinamide], in data set [1], the IC50 stood at 0.85 nM. In data set [2], the IC50 stood at 185 nM and the “Ratio (KDR/RET)” value is on record as 218. In data set [3], the IC50 is 27.4 nM. In addition, the concentration for half-maximal inhibition (IC50) in data set [4] is 32.1 nM. For the same compound, in data set [5], the MRT is 2.85 h, the Cmax worked out at 9340 ng/mL, the AUC(0-t) is 24500 ng·h/mL and the AUC(0-inf) was 24500 ng·h/mL. Further, in data set [5], the half-life is 1.7 h and the Tmax was determined as 0.5 h. In data set [6] (30 mg/kg oral twice a day), the “Tumor volume (Mean ± SD) Day 0” value is recorded as 133.41 ± 18.82 mm^3, the “TGI (%) Day 14” value is listed as 126.35% and the “Tumor volume (Mean ± SD) Day 14” value is listed as 98.26 ± 33.71 mm^3.
In data set [1], `C#CC(C)(O)COc1cc(-c2ccc(N3CC4CC(C3)N4Cc3ccc(OC)nc3)nc2)c2c(C#N)cnn2c1` (stereo not drawn) [Embodiment 62, 6-((2-Hydroxy-2-methylbut-3-yn-1-yl)oxy)-4-(6-(6-((6-methoxypyridin-3-yl)methyl)-3,6-diazabicyclo[3.1.1]heptan-3-yl)pyridin-3-yl)pyrazolo[1,5-a]pyridine-3-carbonitrile] returned an IC50 of 0.48 nM. In addition, in data set [2], it took 35.2 nM to reach half-maximal inhibition (IC50) and the “Ratio (KDR/RET)” value was 73. For the same compound, in data set [5], the MRT stood at 4.07 h, the Cmax came to 2820 ng/mL, the AUC(0-t) amounted to 13800 ng·h/mL and the AUC(0-inf) was determined as 13800 ng·h/mL. In addition, in data set [5], the half-life is 2.4 h and the Tmax was determined as 0.5 h. In addition, in data set [6] (10 mg/kg oral twice a day), the “Tumor volume (Mean ± SD) Day 0” value came to 100.24 ± 27.85 mm^3, the “TGI (%) Day 14” value came to 89.74% and the “Tumor volume (Mean ± SD) Day 14” value is 247.52 ± 85.65 mm^3.
With `COc1ncc(CN2C3CC2CN(c2ccc(-c4cc(OCC5(C#N)CC5)cn5ncc(C#N)c45)cn2)C3)cc1F` [Embodiment 55, 6-((1-Cyanocyclopropyl)methoxy)-4-(6-(6-((5-fluoro-6-methoxypyridin-3-yl)methyl)-3,6-diazabicyclo[3.1.1]heptan-3-yl)pyridin-3-yl)pyrazolo[1,5-a]pyridine-3-carbonitrile], the 50% inhibitory concentration (IC50) in data set [1] is 0.31 nM. For the same compound, in data set [2], half-maximal inhibition (IC50) was put at 37.5 nM and the “Ratio (KDR/RET)” value is 121. In addition, the IC50 in data set [3] worked out at 28.5 nM. In data set [4], the 50% inhibitory concentration (IC50) is 19.6 nM. Moreover, in data set [5], the MRT came to 6.51 h, the Cmax is 1940 ng/mL, the AUC(0-t) came to 21600 ng·h/mL and the AUC(0-inf) was 22100 ng·h/mL. Further, in data set [5], the half-life was 4.26 h and the Tmax stood at 2 h.
On to `COc1ncc(CN2C3CC2CN(c2ccc(-c4cc(OCC5(C#N)CCOCC5)cn5ncc(C#N)c45)cn2)C3)cc1F` [Embodiment 60, 6-((4-Cyanotetrahydro-2H-pyran-4-yl)methoxy)-4-(6-(6-((5-fluoro-6-methoxypyridin-3-yl)methyl)-3,6-diazabicyclo[3.1.1]heptan-3-yl)pyridin-3-yl)pyrazolo[1,5-a]pyridine-3-carbonitrile], for which the IC50 in data set [1] is 0.58 nM. Further, in data set [2], half-maximal inhibition (IC50) was put at 257 nM and the “Ratio (KDR/RET)” value is listed as 445. For the same compound, the IC50 in data set [3] was found to be 28.4 nM. For the same compound, in data set [4], the IC50 worked out at 18 nM. Also, in data set [5], the MRT came to 5.56 h, the Cmax stood at 3080 ng/mL, the AUC(0-t) turned out to be 28000 ng·h/mL and the AUC(0-inf) turned out to be 28200 ng·h/mL. Further, in data set [5], the half-life is 3.26 h and the Tmax came out at 0.5 h.
Consider `COc1ccc(CN2C3CC2CN(c2ccc(-c4cc(OCC56CC(C#N)(C5)C6)cn5ncc(C#N)c45)cn2)C3)cn1` [Embodiment 53, 6-((3-Cyanobicyclo[1.1.1]pentan-1-yl)methoxy)-4-(6-(6-((6-methoxypyridin-3-yl)methyl)-3,6-diazabicyclo[3.1.1]heptan-3-yl)pyridin-3-yl)pyrazolo[1,5-a]pyridine-3-carbonitrile], for which the IC50 in data set [1] is 0.8 nM; in data set [2], 21.6 nM; in data set [3] it was 24.7 nM; in data set [4], 30.6 nM. The “Ratio (KDR/RET)” value in data set [2] was determined as 27.
`COc1ccc(CN2C3CC2CN(c2ccc(-c4cc(OCC(C)(C)C#N)cn5ncc(C#N)c45)cn2)C3)cn1` [Embodiment 9, 6-(2-Cyano-2-methylpropoxy)-4-(6-(6-((6-methoxypyridin-3-yl)methyl)-3,6-diazabicyclo[3.1.1]heptan-3-yl)pyridin-3-yl)pyrazolo[1,5-a]pyridine-3-carbonitrile] came in with an IC50 in data set [1] of 0.76 nM. In addition, in data set [2], the IC50 amounted to 70 nM and the “Ratio (KDR/RET)” value is recorded as 92. In data set [3], the IC50 was 29.3 nM. For the same compound, the IC50 in data set [4] came out at 28.9 nM. For the same compound, in data set [5], the mean residence time MRT was found to be 5.84 h, the Cmax stood at 1920 ng/mL, the AUC(0-t) stood at 16100 ng·h/mL and the AUC(0-inf) worked out at 16400 ng·h/mL. Further, in data set [5], the half-life was 4.2 h and the Tmax turned out to be 0.5 h.
In data set [1], `C#C[C@](C)(O)COc1cc(-c2ccc(N3CC4CC(C3)N4Cc3cnc(OC)c(F)c3)nc2)c2c(C#N)cnn2c1` [Embodiment 65, 4-(6-(6-((5-Fluoro-6-methoxypyridin-3-yl)methyl)-3,6-diazabicyclo[3.1.1]heptan-3-yl)pyridin-3-yl)-6-(((S)-2-hydroxy-2-methylbut-3-yn-1-yl)oxy)pyrazolo[1,5-a]pyridine-3-carbonitrile] returned an IC50 of 0.33 nM. Further, in data set [2], the IC50 was 14.5 nM and the “Ratio (KDR/RET)” value is 44. Also, the IC50 in data set [3] stood at 12.7 nM. Also, the 50% inhibitory concentration (IC50) in data set [4] was determined as 7.03 nM. In data set [5], the MRT came to 5.24 h, the Cmax amounted to 2400 ng/mL, the AUC(0-t) worked out at 20200 ng·h/mL and the AUC(0-inf) was 20300 ng·h/mL. Further, in data set [5], the half-life was 3.05 h and the Tmax was 2 h. In addition, in data set [6] (10 mg/kg oral twice a day), the “Tumor volume (Mean ± SD) Day 0” value came out at 100.40 ± 29.77 mm^3, the “TGI (%) Day 14” value amounted to 87.71% and the “Tumor volume (Mean ± SD) Day 14” value is given as 276.69 ± 106.21 mm^3.
